Measured values: patent publication US20170112787A1, “METHODS OF TREATMENT OF INFLAMMATION OF THE GUT” (THE UNIVERSITY OF CONNECTICUT, priority 2015, published 2017)

Key:
siLP CX3CR1hi Mφ = test: Oral gavage; frequency of siLP CX3CR1hi Mφ and CX3CR1lo cells by flow cytometry; format: in vivo, mouse
Source text: Mice: C57BL/6, NOD/Lt, VR1^−/− (also known as TRPV1^−/−), IL27RA^−/− (also known as WSX-1^−/−) and CX3CR1^gfp/gfp, were obtained from the Jackson Laboratory (Bar Harbor, Me.). IL10-GFP reporter (Vert-X) mice were a kind gift from Dr. Roger S Thrall. All animals except NOD/Lt were on a C57BL/6 background. CX3CR1^gfp/gfp were crossed with C57BL/6 mice to obtain CX3CR1^gfp/+ mice. CX3CR1^gfp/gfp mice were backcrossed with VR1^−/− to obtain CX3CR1^gfp/+ VR1^−/− mice. IL27RA^−/− mice were backcrossed with C57BL/6 mice to obtain IL27RA^+/− mice. All animals were housed in the Center for Comparative Medicine at UConn Health. All experiments were conducted under the guidelines approved by the UConn Health Animal Care Committee.
(§1) Cell isolation: The siLP cells were isolated as per protocols known in the art. In brief, small intestines were removed from the mice, luminal contents were flushed with cold HBSS (Invitrogen, Carlsbad, Calif., USA) with 5% FBS, opened longitudinally after removing Peyer's patches and cut in to small pieces. The epithelial cells were removed by incubation with HBSS containing 1.3 mM EDTA (Invitrogen, Carlsbad, Calif., USA), 1mM HEPES (Invitrogen, Carlsbad, Calif., USA) and 0.77 mM DTT (Sigma, St. Louis, Mo., USA) at 37° C. shaking at 350 rpm. The intestinal pieces were then washed with PBS (Invitrogen, Carlsbad, Calif., USA) and digested in 100 units/ml collagenase IV (Sigma, St. Louis, Mo., USA) at 37° C. shaking at 550 rpm. Leukocytes were enriched using percoll (GE Healthcare, Piscataway, N.J., USA) gradient. The PLN, MLN and splenic cells were isolated by gently crushing the organs through 70 μm cell strainer (BD Falcon, Franklin, N.J., USA). Splenocytes were incubated with ACK lysing buffer (Invitrogen, N.Y., USA) to eliminate red blood cells for 3 mins at 37° C. and washed twice with PBS.
(§2) Flow cytometry: Fluorescently labeled antibodies used for surface staining included: CD11b (M1/70), CD11 c (N418), CX3CR1 (polyclonal), CD103 (2E7), CD64 (X54-5/7.1), MHCII (M5/114.15.2), B220 (RA3-6B2), CD3 (145-2C11), CD4 (RM4-5), CD25 (PC61) and CD62L (ME2-14) and those used for intracellular staining include: VR1 (polyclonal) IL10 (JESS-16E3), TNFα (MP6-XT22), IFNγ (XMG1.2), and IL17A (TC11-18H10.1). For detection of CB2, primary antibody against CB2 (polyclonal) was used followed by fluorescently labeled secondary antibody. All were purchased from Biolegend San Diego, Calif., USA except for TNFα (Becton Dickinson, San Jose, Calif., USA), CX3CR1 (R&D Minneapolis, Minn., USA), VR1 (Thermo Scientific, Rockford, Ill. USA), IL10 (eBioscience, San Diego Calif., USA) and CB2 (Thermo Scientific, Rockford, Ill. USA). Cells were acquired with a LSRII flow cytometer (Becton Dickinson, San Jose, Calif., USA) or sorted with a FACSAria™ machine (Becton Dickinson, San Jose, Calif., USA). Flow cytometry analysis was done with the FlowJo Version 9.7.6 (Tree Star, Ashland, Oreg,).
(§3) Oral administration of CP, AEA and PF3845: Mice were anesthetized with intraperitoneal injection of ketamine (2 mg/kg) and xylazine (0.1 mg/kg). Vehicle control (tween 80 (5%), […] in PBS) or CP (10 μg) (ENZO Life Sciences, Farmingdale, N.Y., USA) or AEA (250 μg, 400 μg or 500 μg) (Cayman Chemical Co., Ann Arbor, Mich., USA) or PF3845 (5 mg/kg) (Cayman Chemical Co., Ann Arbor, Mich., USA) were gavaged in 100 μl volume using an 18-gauge feeding needle (Popper & Sons, New Hyde Park, N.Y., USA).

[1] = tested on: siLP CX3CR1hi Mφ and CD103+ DCs; test: Oral gavage; IL10, TNF-α and CX3CR1 expression in siLP CX3CR1hi Mφ and CD103+ DCs by flow cytometry; format: in vivo, mouse
Protocol: as §1, §2
Intracellular cytokine staining: Cells were incubated with PMA (50 ng/ml) (Sigma Co., St. Luis, Mo., USA) plus ionomycin (1 μg/ml) (Sigma Co., St. Luis, Mo., USA) in the presence of golgi plug (BD Biosciences, San Jose, USA) for 5 hours at 37° C. followed by surface staining with fluorochrome conjugated antibodies and then intracellular staining of IL10, TNFα, IFNγ, and IL17A was performed by fixation and permeabilization according to manufacturer's protocol BD Cytofix/Cytoperm™ kit. […]

[2] = tested on: naïve splenic CD4+ T cells; test: In vitro co-culture of siLP MNPs sorted from treated mice with naïve splenic CD4+ T cells; format: cell-based, mouse
Protocol: (§4) Intracellular cytokine staining: Cells were incubated with PMA (50 ng/ml) (Sigma Co., St. Luis, Mo., USA) plus ionomycin (1 μg/ml) (Sigma Co., St. Luis, Mo., USA) in the presence of golgi plug (BD Biosciences, San Jose, USA) for 5 hours at 37° C. followed by surface staining with fluorochrome conjugated antibodies and then intracellular staining of IL10, TNFα, IFNγ, and IL17A was performed by fixation and permeabilization according to manufacturer's protocol BD Cytofix/Cytoperm™ kit.
In vitro co-culture assays: For in vitro co-culture assays, siLP MNPs were sorted as described previously from C57BL/6 or CX3CR1^gfp/+ mice. MNPs (10×10^4) were cocultured for 4 days with splenic naïve CD25^− CD62L^hi CD4^±T cells sorted from untreated C57BL/6 or IL27Ra^−/− mice at 1:1 ratios in the presence of soluble αCD3 mAb (145-2C11) (0.5 μg/ml) in U-bottomed 96 well plates. The cultured cells were maintained in RPMI 1640 medium supplemented with 5% fetal bovine serum, 1 mM sodium pyruvate, 1 mM non-essential amino acids, 2 mM L-gluatamine, 50 units/ml streptomycin, and 50 μM Beta-mercaptoethanol, all purchased from Gibco/Invitrogen (Carlsbad, Calif., USA). After 4 days, the cultured cells were washed with PBS and surface stained with CD4 and intracellular staining was performed for IL10 and IFN-γ.
as §3

IL27-p28 = test: qPCR of IL27-p28 in sorted siLP MNPs after oral gavage; format: in vivo, mouse; settings: two days after treatment, with respect to vehicle
Protocol: as §3
qPCR: Total RNA was isolated from sorted siLP MNP using the RNeasy® Micro kit Oaten, Chatsworth, Calif., USA). cDNA was made from total RNA using iSCRIPT™ cDNA synthesis kit (Bio-Rad Laboratories, Hercules, Calif.). IL-27 gene expression was measured using IL-27 TactMan® Gene Expression Assay (Life technologies, Grand Island, N.Y., USA) and CFX96™ Real-Time PCR detection system (Bio-Rad Laboratories, Hercules, Calif., USA). Gene expression was normalized to GAPDH.

[3] = tested on: CX3CR1+ Mφ in PLN and MLN; test: Oral gavage; frequency of CX3CR1+ Mφ in PLN and MLN by flow cytometry; format: in vivo, mouse
Protocol: as §1
as §2, with “Flow cytometry analysis was done with the FlowJo Version 9.7.6 (Tree Star, Ashland, Oreg,).” left out

[4] = tested on: CD4+IL10+IFN-γ+ Tr1 cells; test: Oral gavage; frequency of CD4+IL10+IFN-γ+ Tr1 cells and IL17A+ CD4+ T cells in siLP and PLN; format: in vivo, mouse
Protocol: as §1, §2, §4, §3
We now tested if CP can elicit such regulatory T cells in vivo. NOD mice were orally gavaged twice at 9th and 10th week of age with 10 μg CP or vehicle as a control; two weeks post CP treatment, siLP and the PLN were harvested and the frequency of CD4+IL10+IFN-γ+ Tr1 cells was measured.

[5] = tested on: Type 1 Diabetes in NOD mice; test: Adoptive transfer of CD4+ T cells from treated NOD donors; diabetes development by urine glucose; format: in vivo, mouse; settings: CD4+ T cells from PLN and spleen of treated female NOD donors, vs vehicle elicited cells
Protocol: Adoptive transfer: Female NOD mice were orally gavaged with CP 10 μg or vehicle at 9 and 10 weeks of age as described earlier. 2 weeks later CD4^+ T cells were sorted from the PLN and spleen of the treated mice. All recipient female NOD mice were sub-lethally irradiated. Four hours after irradiation the recipient mice received […] diabetogenic splenocytes. 7×10^6 sorted CD4^+ T cells were then transferred to naïve NOD female mice by retro-orbital injection at 11 weeks of age. Development of diabetes was monitored by measuring urine glucose using Diastix® reagent strips (Bayer, Elkhart, Ind., USA). Mice were considered diabetic after two consecutive readings of >1000 mg/dl of urine glucose.

[6] = CX3CR1gfp/+ mice, oral gavage, 24 hours after feeding, vs vehicle
[7] = NOD mice, 10 μg at 9th and 10th week, two weeks post treatment

O=C(Nc1cccnc1)N1CCC(Cc2cccc(Oc3ccc(C(F)(F)F)cn3)c2)CC1 [PF3845]
frequency of CX3CR1hi Mφ in siLP (siLP CX3CR1hi Mφ; [6]): increase in the frequency

COc1cc(CNC(=O)CCCC/C=C/C(C)C)ccc1O [CP, Capsaicin]
frequency and number of CX3CR1lo cells in siLP (siLP CX3CR1hi Mφ; CX3CR1gfp/+ mice, oral gavage 10 μg, 24 hours, vs vehicle): did not affect the frequency and number
frequency of CX3CR1hi Mφ in siLP (siLP CX3CR1hi Mφ; [6]): significantly increased the frequency
frequency of CX3CR1hi Mφ in siLP (siLP CX3CR1hi Mφ; CX3CR1gfp/gfp mice (lack functional CX3CR1), oral gavage 10 μg, 24 h): no changes in the frequency
frequency of CX3CR1hi Mφ in siLP (siLP CX3CR1hi Mφ; NOD mice, oral administration): increases the frequency
production of TNF-α in CX3CR1hi Mφ ([1]; 24 hours after treatment, vs controls): decreased
expression of CX3CR1 on CX3CR1hi Mφ ([1]; CX3CR1gfp/+ mice, vs vehicle): significantly increased expression of CX3CR1
IL10 production in CD103+ DCs ([1]; IL10-GFP reporter mice, oral gavage 10 μg, 24 hrs): modest but statistically significant increase in IL10 production
production of IL10 in CX3CR1hi Mφ ([1]; IL10 GFP-reporter mice, 24 hours after treatment, vs controls): significant increase in the production of IL10
expression of IL10 in CD4+ T cells ([2]; MNPs sorted 24 hours after treatment, co-culture 1:1, four days): significant increase in the expression of IL10
induction of CD4+ T cells expressing both IL10 and IFN-γ (Tr1) ([2]; MNPs sorted 24 hours after treatment, co-culture 1:1, four days, IL27RA+/+ T cells): significant increase in the induction
increase in frequency of CD4+ IL10+ IFN-γ+ T cells ([2]; T cells derived from IL27RA−/− mice): completely abrogated
level of IL27-p28 in the MNPs (IL27-p28): five fold increase
frequency of CX3CR1+ Mφ in the MLN ([3]; 3 days after feeding 10 μg): but not in MLN
frequency of CX3CR1+ Mφ in the PLN ([3]; 3 days after feeding 10 μg): significant VR1-dependent increase in the frequency
frequency of CX3CR1+ Mφ in the PLN ([3]; NOD mice, 3 days post oral gavage 10 μg): significant increase in the frequency
elicitation of Tr1 cells in PLN ([4]; CX3CR1gfp/gfp mice (no functional CX3CR1)): does not elicit Tr1 cells
Tr1 cell elicitation by IL27RA genotype ([4]; IL27RA −/−, +/− and +/+ mice): gene dose-dependence of Tr1 cell elicitation
dependence of elicited Tr1 cells on IL27 signaling ([4]; IL27RA+/+ vs IL27RA−/− mice, PLN): require the presence of functional IL27-IL27R signaling
frequency of Tr1 cells in PLN [4, 7]: expansion of Tr1 cells
frequency of Tr1 cells in siLP [4, 7]: expansion of Tr1 cells
frequency of IL17A+ CD4+ T cells in the PLN ([4]; NOD mice, oral administration): significant decrease in the frequency
protection from T1D by transferred CD4+ T cells [5]: significantly higher protection from T1D
